The source of these data is article PMC12040169 (PLOS Biology, 2025).

Structures are written as SMILES.

The series is described as follows: in vitro. The conditions noted are these: human, hela cells.

The viability is a read-out of living cells in per cent, often relative to untreated cells.

Regarding `N#CC(C(=O)NC1CCCCC1)C(=O)c1nn(-c2ccccc2)c2c1CSc1ccccc1-2` (stereo not shown) [CBK017690], the viability at 28.5 h, 10 µM (% viability) amounted to 103%. Turning to `C#CCNCCCOc1ccccc1Oc1ccccc1` [CBK017707C], the viability at 28.5 h, 10 µM (% viability) worked out at 94.2%. The same measure, in the same setting: with `CN1[C@@H]2CC[C@H]1C[C@@H](N1Cc3cc4ccccc4n3C1=O)C2` [CBK017722] the figure was 124%; with `Oc1ccc(CCNc2ncnc3[nH]cnc23)cc1` [CBK017724C], 101%; with `CC(NC(C)(C)C)C(O)COc1ccc(Cl)c2c1C1CCC2CC1` (stereo not shown) [CBK017752C], 89.6%. Still for that read-out and setting: the figure for `CC(O)(CC(=O)O)CC(=O)OCCc1ccc2c(c1)CCC2` (stereo not shown) [CBK017766] is 95.2%. Still for that read-out and setting: with `O=C(CCN1CCCCC1)Nc1ccc2c(=O)n3c(nc2c1)/C(=C/c1ccccc1)CC3` [CBK017786] the figure was 94.1%; with `Cc1cc2oc(=O)c3c(c2cc1C)CCN(C)C3` [CBK017803], 97%.

In the case of `CN1Cc2ccccc2-c2ccc(O)cc21` [CBK017804], under “% viability”, the viability at 28.5 h, 10 µM turned out to be 97.2%.

`CN1CCC2(CC1)SC(=O)Nc1ccc(Br)cc12` [CBK017821B]: the viability at 28.5 h, 10 µM (% viability) was 100%. Still for that read-out and setting: with `CCCN(CCc1ccc(C(F)(F)F)cc1)C1Cc2cc(OC)c(OC)cc2C1` [CBK017829C] the figure was 103%; with `O=C1CN(C(=O)c2cccc(Cl)c2)c2ccccc2N1` [CBK017844], 101%; with `O=C(O)CN1C(=O)S/C(=C\c2ccc([N+](=O)[O-])o2)C1=O` [CBK017858], 97.7%. Still for that read-out and setting: the figure for `COc1cc(C(CC(C)NC(C)(C)C)c2ccccc2)ccc1OCc1ccccc1` (stereo not shown) [CBK017901] is 79.8%. On the same count and under the same terms, the figure for `Cc1ccc(OCc2ccccc2)c(C(CCN(C(C)C)C(C)C)c2ccccc2)c1` (stereo not shown) [CBK017906] is 108%. For `O=C(O)c1cc2cc(F)ccc2[nH]1` [CBK017929], for the setting “% viability”, the viability at 28.5 h, 10 µM is 86.3%.

For the compound `CC(=O)NC[C@H]1CN(c2ccc(-c3nnc(C(C)O)s3)c(F)c2)C(=O)O1` (stereo partly shown) [CBK017968], the viability at 28.5 h, 10 µM (% viability) stood at 99.6%. On to `Cc1cc(N2C[C@H](CO)OC2=O)ccc1C#N` [CBK017978], for which, under “% viability”, the viability at 28.5 h, 10 µM worked out at 116%. As to `O=C(NCc1ccc(Cl)cc1)c1cnc2ccc(C#CCO)cc2c1O` [CBK017979], the viability at 28.5 h, 10 µM (% viability) stood at 92.4%. Consider `O=C(Nc1n[nH]c2ccccc12)c1ccccc1` [CBK017993], for which the viability at 28.5 h, 10 µM (% viability) is 90.1%.

For `CC1CCn2c3c(c4cccc1c42)CCNCC3` (stereo not shown) [CBK018012C], under “% viability”, the viability at 28.5 h, 10 µM came out at 97.4%.

Take `CN1CCCN(Cc2ccc3c(c2)c(=O)c(C(=O)NCc2ccc(Cl)cc2)cn3C)CC1` [CBK018019]: where the note is “% viability”, the viability at 28.5 h, 10 µM came out at 82.8%. Same read-out and setting: with `O=C(CSc1nc2ccccc2o1)N1c2ccccc2Sc2ccc(C(F)(F)F)cc21` [CBK018044] the figure was 91.1%; with `CC(C(=O)N1c2ccccc2Sc2ccccc21)N1C(=O)c2ccccc2C1=O` (stereo not shown) [CBK018045], 105%; with `OCCOCCN1CCN(C(S)=Nc2ccccc2)CC1` [CBK018046], 84.7%. Same read-out and setting: the figure for `CCCc1nc(NC(C)=O)c(C#N)c(-c2ccco2)c1CC` [CBK018074] is 100%. Regarding `CN(C)CCOCCS(=O)(=O)c1ccc(N2CCC(c3ccc(Cl)cc3)=N2)cc1` [CBK018115], the viability at 28.5 h, 10 µM (% viability) amounted to 114%.

Turning to `Cc1ccccc1N1C(=O)/C(=N\Nc2ccc(S(=O)(=O)O)cc2)C(=O)NC1=S` [CBK018165], the viability at 28.5 h, 10 µM (% viability, bulk resorufin, single well) was found to be 97.7%. On to `COC(=O)c1ccc(S(=O)(=O)C(F)(F)F)cc1N` [CBK018172], for which the viability at 28.5 h, 10 µM (% viability) was 114%. The same measure, in the same setting: with `O=C(NCCN1CCOCC1)c1sc2cc(F)ccc2c1Cl` [CBK018212] the figure was 120%; with `CC(C)(Cc1ccccc1)NCC(O)COc1ccc2c(c1)C1CCC2C1` (stereo not shown) [CBK018228C], 86.4%. On the same count and under the same terms, with `CC(C)NC(=O)N1CCc2sccc2C1c1ccc(Cl)cc1` (stereo not shown) [CBK018247] the figure was 108%. Still for that read-out and setting: with `CSc1sc(C(=O)NC(=O)N2CCOCC2)c2c1-c1nocc1CC2` [CBK018284] the figure was 74.3%. As to `COc1cc2c(cc1OC)/C(=C/c1ccc[nH]1)C(=O)N2` [CBK018342], the viability at 28.5 h, 10 µM (% viability) was determined as 57.7%. On the same count and under the same terms, the figure for `O=C(O)c1sc2c(ccc3ccccc32)c1Br` [CBK018387] is 90.4%; for `CCOc1ccc(S(=O)(=O)NCCCN2CCOCC2)c2ccccc12` [CBK018421] it is 89.8%; for `CCCn1cc(C(=O)NCc2ccc(Cl)cc2)c(=O)c2cc(CN3CCOCC3)sc21` [CBK018478] it is 93.8%. On the same count and under the same terms, with `CC(=O)NC[C@H]1CN(c2ccc3c(c2)CCN(C(C)=O)CC3)C(=O)O1` [CBK018491] the figure was 86.6%.

As for `CC(=O)NC[C@H]1CN(c2ccc3c(c2)CCN(C(=O)Oc2ccccc2)CC3)C(=O)O1` [CBK018498], the viability at 28.5 h, 10 µM (% viability) came out at 91.2%.

Regarding `CC(=O)NC[C@H]1CN(c2ccc3c(c2)CCN(C(=O)Cc2ccccc2)CC3)C(=O)O1` [CBK018499], the viability at 28.5 h, 10 µM (% viability) stood at 111%.

Take `CCN(CC)c1cc(N2CCCNCC2)ccc1S(=O)(=O)c1cccc(F)c1` [CBK018509C]: the viability at 28.5 h, 10 µM (% viability) amounted to 101%.

Take `O=C(Nc1ccc(O)cc1C(=O)O)c1cccc(Br)c1` [CBK018511]: for the setting “% viability”, the viability at 28.5 h, 10 µM is 89.1%. Same read-out and setting: the figure for `NCc1cnc2c(c1)CCC2` [CBK018584G] is 90.8%; for `CCOC(=O)C1=NOC2COC3(CCN(c4ncccn4)CC3)OCC12` (stereo not shown) [CBK018602] it is 94.3%.

Consider `CCOC(=O)CSc1c2cc3c(nc2nc(=O)n1Cc1ccccc1)CC(C)(C)OC3` [CBK018608], for which the viability at 28.5 h, 10 µM (% viability) is 94.3%.

With `Cc1c(Br)c(C(F)(F)F)nn1CC(=O)NCCN1CCOCC1` [CBK018700], the viability at 28.5 h, 10 µM (% viability) turned out to be 107%. Same read-out and setting: the figure for `Cc1cc(NC(=O)Cn2nc(C(F)(F)F)c(Cl)c2C)no1` [CBK018709] is 87.3%; for `Cc1cccc(C(=O)N/N=C/c2ccoc2)c1O` [CBK018727] it is 90.7%. Consider `Cc1[nH]c(=O)c(S(=O)(=O)c2ccccc2)c(C)c1Cl` [CBK018736], for which the viability at 28.5 h, 10 µM (% viability) stood at 83.1%.

In the case of `Oc1ccc(C2N=C(c3ccccc3)N=C(c3ccccc3)N2)cc1` (stereo not shown) [CBK018755], the viability at 28.5 h, 10 µM (% viability) was 95.4%.

On to `c1cc2c(cc1CNc1nnn[nH]1)OCO2` [CBK018783], for which, under “% viability”, the viability at 28.5 h, 10 µM was 91.5%. Still for that read-out and setting: with `CSc1cc(CC(C)(C)C)c2cccc(F)c2n1` [CBK018791] the figure was 99.8%; with `OCc1nc(-c2cccnc2)co1` [CBK018811], 106%. Same read-out and setting: the figure for `CN(C)c1nc(N(C)C)n(Cc2ccc(F)cc2)n1` [CBK018839] is 89.3%; for `CCOC(=O)c1nnsc1Sc1ccc(C)cc1` [CBK018867] it is 89.6%; for `Cn1/c(=N\C(=O)c2cccs2)sc2cc(Br)ccc21` [CBK018873] it is 102%.

Turning to `CCCN(Cc1ccoc1)CC1CC1` [CBK018931], the viability at 28.5 h, 10 µM (% viability) worked out at 94.6%. `Clc1ccc(-c2nn[nH]n2)c(Cl)c1` [CBK018932]: the viability at 28.5 h, 10 µM (% viability) turned out to be 89.7%. Still for that read-out and setting: with `O=c1nc(-c2cc(Br)cs2)[nH]c2ccc(Cl)cc12` [CBK018959] the figure was 90.5%. The same measure, in the same setting: the figure for `CCOC(=O)c1cnc(SC)nc1N1CCOCC1` [CBK018971] is 90.7%; for `C=CCNc1nc(N)c(/C(N)=N\C#N)s1` [CBK019028] it is 99.3%. On the same count and under the same terms, with `CC1(C)NC(=O)N(CC(O)COc2cc3ccccc3cc2C(=O)N2CCCCC2)C1=O` (stereo not shown) [CBK019029] the figure was 120%; with `Nc1nonc1NC(=O)c1ccccc1Cl` [CBK019040], 99.3%; with `Cc1nc2n(n1)C1=CC(C)(C)CC(=O)C1=NN2` [CBK019050], 89.2%.

Take `C#CCN1C(=O)C2(OCCO2)c2cccc(C)c21` [CBK019069]: the viability at 28.5 h, 10 µM (% viability) worked out at 95.1%. With `Clc1ccccc1COc1cccc(/C=N/Nc2nc(N3CCCC3)nc(N3CCCC3)n2)c1` [CBK019076], the viability at 28.5 h, 10 µM (% viability) was 89.8%.

Take `CCCC1C(C(N)=O)=C(C)NC(C)=C1C(N)=O` [CBK019102]: the viability at 28.5 h, 10 µM (% viability) amounted to 105%. Consider `Clc1nsnc1N1CCOCC1` [CBK019133], for which, under “% viability”, the viability at 28.5 h, 10 µM was found to be 101%. Still for that read-out and setting: with `COc1ccc(C2(C(F)(F)F)NC(=O)N3CCN=C3S2)cc1` (stereo not shown) [CBK019170] the figure was 106%; with `CCCCOC(=O)CCn1c(=S)oc2ccccc21` [CBK019181], 87.9%. With `Cc1nccn1C(=O)NC1CCCCC1` [CBK019187], the viability at 28.5 h, 10 µM (% viability) came to 81.8%. On the same count and under the same terms, with `CC1=CC[C@H]2COC(CN3CCOC3C(C)C)[C@@H]1C2` (stereo partly shown) [CBK019189] the figure was 122%. Still for that read-out and setting: the figure for `O=S(=O)(c1ccc2c(c1)nc1n2CCC1)N1CCOCC1` [CBK019200] is 49.6%; for `COC(=O)Nc1cc2sccc2nc1C(F)(F)F` [CBK019229] it is 80%. Same read-out and setting: with `N#Cc1sc2c(c1NC(=O)C(F)(F)F)CCCC2` [CBK019233] the figure was 92.1%; with `Nc1csc(C2CCOCC2)n1` [CBK019258], 77.3%. For `NC(=O)c1c(N)c(C(N)=S)n2c1CCC2` [CBK019270], the viability at 28.5 h, 10 µM (% viability) was determined as 98.1%. Turning to `O=C(O)CP(=O)(O)c1ccc(Cl)cc1` [CBK019291], the viability at 28.5 h, 10 µM was 102%. For `CC1(Cc2ccn[nH]2)SCCCS1` [CBK019308C], the viability at 28.5 h, 10 µM (% viability) was determined as 109%. In the case of `CCSC(SCC)c1ccnn1-c1ccccc1` [CBK019332], the viability at 28.5 h, 10 µM (% viability) stood at 87.1%.

Consider `COc1cc(C2CN=NC23Cc2ccccc2C3=O)cc(OC)c1OC` (stereo not shown) [CBK019341], for which the viability at 28.5 h, 10 µM (% viability) is 90.4%. Still for that read-out and setting: the figure for `CC(C)N1CCC(=NNC(=O)C(O)c2ccccc2)CC1` (stereo not shown) [CBK019361] is 110%; for `O=S(=O)(Cc1ccc(Br)cc1F)c1ccccn1` [CBK019368] it is 90.4%; for `COc1ccc(C2CC(Cn3cc(C(C)=O)c(=O)[nH]c3=O)ON2C)cc1` (stereo not shown) [CBK019386] it is 95.7%.

On to `COCCOc1nnc(C)c2ccccc12` [CBK019388], for which the viability at 28.5 h, 10 µM (% viability) worked out at 93.6%.
